According to patent US20210275480A1, “COMPOSITIONS AND METHODS FOR THE REDUCTION OR TREATMENT OF FIBROSIS” (AXCELLA HEALTH INC., priority 2018, published 2021):

What was measured:
[1] = tested on: LX-2 hepatic stellate cells; assay: TGFβ1-induced fibrogenic gene expression (Col1a1, Acta2, Timp2) in LX-2 hepatic stellate cells, qPCR; type: cell-based, human; conditions: LX-2 cells with TGFβ1
Source text: Hepatic stellate cells in a healthy liver are in the space of Disse, between the hepatocytes and liver sinusoidal endothelial cells. In response to liver injury hepatic stellate cells become activated, proliferative and contractile, increase production of aSMA, secretion of type I and III collagens and specific MMP and TIMP proteins. LX-2 cells were selected as a model of activated hepatic stellate cells and used to test whether specific amino acid compositions would reduce fibrogenic gene expression induced with TGFβ1.
LX-2 hepatic stellate cells (Millipore) were seeded on day 0 at 1.67E4 cells per well in collagen I coated 96-well microplates (ThermoFisher) in Dulbecco's Modified Eagle Medium (DMEM, Corning) supplemented with 2% heat inactivated fetal bovine serum (HI-FBS, HyClone) and 0.2% Primocin (InVivoGen) and incubated overnight at 37° C., 5% CO2. […] Combinations containing N-acetylcysteine were dosed with 10 mM. Cells were pretreated for 6 hours at 37° C., 5% CO2. After pretreatment, TGFβ1 (R&D Systems) or vehicle was spiked into each well for a final concentration of 5 ng/mL and cells were incubated under this stimulus for a further 12 hours at 37° C., 5% CO2.
After 12 hour incubation, RNA extraction and quantitative PCR was conducted on lysates to determine collagen-1a1 expression normalized to β-actin housekeeping expression using the ΔΔCt method using TaqMan primer probes (Integrated DNA Technologies: Col1A1, Hs.PT.58.15517795; Actb, Hs.PT.39a.22214847; Acta2, Hs.PT.56a.24853961; Timp2, Hs.PT.58.14780594).

[2] = tested on: Col1a1 gene expression, primary human hepatic stellate cells; assay: Col1a1 gene expression in TGFβ1-stimulated primary human hepatic stellate cells; type: cell-based; conditions: for Col1a1 Fold Expression Relative to Control, Mean: normalized to Gapdh; for Col1a1 gene expression: primary human hepatic stellate cells, three healthy donors, TGFβ1 3 ng/mL 24 h, summary in words
Description: (§1) Primary human hepatic stellate cells were obtained from Samsara Sciences. Cells were grown in Complete HSC Medium to ˜80% confluence in T75 or T150 flasks below passage 10 were seeded into sterile, collagen I coated, 96-well optical plastic microplates (ThermoScientific, 152036) and incubated overnight at 37° C., 5% CO2 in a humidified incubator in DMEM with 2% Fetal Bovine Serum and 1% Antibiotic-Antimycotic. After the overnight incubation, plates are washed and pretreated with medium±single amino acid dropout, 1×HMDB DMEM±supplemental amino acid dose for 10.5 hours. After 10.5 hour pretreatment, the same pretreatment medium supplemented with 3 ng/mL TGFβ1, was applied and incubated for 24 hours at 37° C., 5% CO2. After 24 hour stimulus, supernatant was removed, RNA was extracted and gene expression was evaluated using the ΔΔCq method within each single amino acid dropout and supplementation by normalizing to its own 1×HMDB concentration.

[3] = tested on: procollagen Iα1 secretion, primary human hepatic stellate cells; assay: Procollagen Iα1 secretion by TGFβ1-stimulated primary human hepatic stellate cells, ELISA; type: cell-based; conditions: for procollagen Iα1 secretion: primary human hepatic stellate cells, three healthy donors, TGFβ1 3 ng/mL 24 h, summary in words
Description: as §1
Human Procollagen 1α1 was measured from the supernatant by ELISA (Human ProCollagen I alpha 1 DuoSet ELISA, R&D Systems) at 1/100 dilution in 1× Reagent Diluent (Reagent Ancillary Kit 2, R&D Systems).
Tables 32, 33, 33-1, 33-2, 33-3, and 33-4 show the fold change in procollagen Iα1 in primary human hepatic stellate cells from three different healthy donors normalized to their respective baseline amino acid conditions. Statistical significance calculated by one-way

[4] = individual amino acid at 1X HMDB derived concentration
[5] = individual amino acid at 50X HMDB derived concentration
[6] = first donor, 66 μM (baseline, reference)
[7] = first donor, 234 μM (baseline, reference)

## CC[C@H](C)[C@H](N)C(=O)O [ILE, isoleucine]
[1]; [4]
  Col1a1 gene expression, mean: 2.020
[1]; [5]
  Col1a1 gene expression, mean: 2.028
[2]; Table 31-4, second donor, 66 μM (baseline, reference)
  Col1a1 Fold Expression Relative to Control, Mean: 1.02 fold
[2]; Table 31-4, second donor, 1328 μM
  Col1a1 Fold Expression Relative to Control, Mean: 0.94 fold
[2]; Table 31-4, second donor, 3320 μM
  Col1a1 Fold Expression Relative to Control, Mean: 0.94 fold
[2]; Table 31-4, second donor, 6639 μM
  Col1a1 Fold Expression Relative to Control, Mean: 1.03 fold
[2]; [6]
  Col1a1 Fold Expression Relative to Control, Mean: 1.01 fold
[2]; first donor, 1328 μM
  Col1a1 Fold Expression Relative to Control, Mean: 1.05 fold
[2]; first donor, 3320 μM
  Col1a1 Fold Expression Relative to Control, Mean: 1.10 fold
[2]; first donor, 6639 μM
  Col1a1 Fold Expression Relative to Control, Mean: 1.11 fold
[2]
  Col1a1 gene expression: did not significantly change
[2]; second donor, 66 μM (baseline, reference)
  Col1a1 Fold Expression Relative to Control, Mean: 1.00 fold
[2]; second donor, 1328 μM
  Col1a1 Fold Expression Relative to Control, Mean: 0.97 fold
[2]; second donor, 3320 μM
  Col1a1 Fold Expression Relative to Control, Mean: 0.99 fold
[2]; second donor, 6639 μM
  Col1a1 Fold Expression Relative to Control, Mean: 1.03 fold
[3]; [6]
  Procollagen Ia1 Secretion (Fold Change of 1X), Mean: 1.0000 fold
[3]; first donor, 1328 μM
  Procollagen Ia1 Secretion (Fold Change of 1X), Mean: 0.9229 fold
[3]; first donor, 3320 μM
  Procollagen Ia1 Secretion (Fold Change of 1X), Mean: 1.1366 fold
[3]; first donor, 6639 μM
  Procollagen Ia1 Secretion (Fold Change of 1X), Mean: 1.2144 fold
[3]
  procollagen Iα1 secretion: significantly increased procollagen Iα1 secretion in two of three donors
[3]; second donor, single amino acid, 66 μM (1X reference)
  Procollagen Ia1 Secretion (Fold Change of 1X), Mean: 1.0000 fold change
[3]; second donor, single amino acid, 1328 μM
  Procollagen Ia1 Secretion (Fold Change of 1X), Mean: 1.4811 fold change
[3]; second donor, single amino acid, 3320 μM
  Procollagen Ia1 Secretion (Fold Change of 1X), Mean: 1.4940 fold change
[3]; second donor, single amino acid, 6639 μM
  Procollagen Ia1 Secretion (Fold Change of 1X), Mean: 1.5423 fold change
[3]; third donor, single amino acid, 66 μM (1X reference)
  Procollagen Ia1 Secretion (Fold Change of 1X), Mean: 1.0000 fold change
[3]; third donor, single amino acid, 1328 μM
  Procollagen Ia1 Secretion (Fold Change of 1X), Mean: 1.2687 fold change
[3]; third donor, single amino acid, 3320 μM
  Procollagen Ia1 Secretion (Fold Change of 1X), Mean: 1.2703 fold change
[3]; third donor, single amino acid, 6639 μM
  Procollagen Ia1 Secretion (Fold Change of 1X), Mean: 1.4465 fold change

## CC(C)[C@H](N)C(=O)O [VAL, valine]
[1]; [4]
  Col1a1 gene expression, mean: 2.093
[1]; [5]
  Col1a1 gene expression, mean: 2.203
[2]; Table 31-4, second donor, 234 μM (baseline, reference)
  Col1a1 Fold Expression Relative to Control, Mean: 1.01 fold
[2]; Table 31-4, second donor, 4684 μM
  Col1a1 Fold Expression Relative to Control, Mean: 1.22 fold
[2]; Table 31-4, second donor, 11710 μM
  Col1a1 Fold Expression Relative to Control, Mean: 1.27 fold
[2]; Table 31-4, second donor, 23420 μM
  Col1a1 Fold Expression Relative to Control, Mean: 1.13 fold
[2]; [7]
  Col1a1 Fold Expression Relative to Control, Mean: 1.00 fold
[2]; first donor, 4684 μM
  Col1a1 Fold Expression Relative to Control, Mean: 1.05 fold
[2]; first donor, 11710 μM
  Col1a1 Fold Expression Relative to Control, Mean: 1.09 fold
[2]; first donor, 23420 μM
  Col1a1 Fold Expression Relative to Control, Mean: 1.00 fold
[2]
  Col1a1 gene expression: did not significantly change
[2]; second donor, 234 μM (baseline, reference)
  Col1a1 Fold Expression Relative to Control, Mean: 1.00 fold
[2]; second donor, 4684 μM
  Col1a1 Fold Expression Relative to Control, Mean: 1.05 fold
[2]; second donor, 11710 μM
  Col1a1 Fold Expression Relative to Control, Mean: 0.98 fold
[2]; second donor, 23420 μM
  Col1a1 Fold Expression Relative to Control, Mean: 1.05 fold
[3]; [7]
  Procollagen Ia1 Secretion (Fold Change of 1X), Mean: 1.0000 fold
[3]; first donor, 4684 μM
  Procollagen Ia1 Secretion (Fold Change of 1X), Mean: 1.1203 fold
[3]; first donor, 11710 μM
  Procollagen Ia1 Secretion (Fold Change of 1X), Mean: 1.2069 fold
[3]; first donor, 23420 μM
  Procollagen Ia1 Secretion (Fold Change of 1X), Mean: 1.2139 fold
[3]
  procollagen Iα1 secretion: significantly increased procollagen Iα1 secretion in only one of two donors
[3]; second donor, single amino acid, 234 μM (1X reference)
  Procollagen Ia1 Secretion (Fold Change of 1X), Mean: 1.0000 fold change
[3]; second donor, single amino acid, 4684 μM
  Procollagen Ia1 Secretion (Fold Change of 1X), Mean: 1.2865 fold change
[3]; second donor, single amino acid, 11710 μM
  Procollagen Ia1 Secretion (Fold Change of 1X), Mean: 1.2877 fold change
[3]; second donor, single amino acid, 23420 μM
  Procollagen Ia1 Secretion (Fold Change of 1X), Mean: 1.3068 fold change
[3]; third donor, single amino acid, 234 μM (1X reference)
  Procollagen Ia1 Secretion (Fold Change of 1X), Mean: 1.0000 fold change
[3]; third donor, single amino acid, 4684 μM
  Procollagen Ia1 Secretion (Fold Change of 1X), Mean: 1.0428 fold change
[3]; third donor, single amino acid, 11710 μM
  Procollagen Ia1 Secretion (Fold Change of 1X), Mean: 1.0498 fold change
[3]; third donor, single amino acid, 23420 μM
  Procollagen Ia1 Secretion (Fold Change of 1X), Mean: 1.1139 fold change
